Where a SMILES comes first, the peptide text is derived from it.
Experiments:
[1] = test system: Scopolamin-induzierte Amnesie; assay: inhibitory (passive) avoidance test (step-through model), reversal of scopolamine-induced amnesia; assay type: in vivo, Mäusen; settings: Mus musculus, po, mice, comparison compound, read-out: MED (minimal effektive Dosis)
Source text: (§1) Die erfindungsgemäße Verbindung ist aufgrund ihrer pharmakologischen Eigenschaften für die Behandlung cognitiver Dysfunktionen unterschiedlicher Genese, wie sie z.B. bei der Alzheimer'schen Krankheit oder der senilen Demenz auftreten, geeignet. Die Verbesserung cognitiver Funktionen durch die erfindungsgemäßen Verbindungen (nootrope Wirkung) wurde im Tierexperiment an Mäusen mittels des inhibitory (passive) avoidance-Tests (step-through-Modell) und an Ratten mittels des radial-maze-Tests (8-armiger radialer Irrgarten) geprüft. Es handelt sich hierbei um literaturbeschriebene Standardtests zur Prüfung von Lern-und Gedächtnisfunktionen im Tierexperiment. (Inhibitory avoidance J. Bures, O. Buresova und J. Huston in "Techniques and Basic Experiments for the Study of Brain and Behavior", Elsevier Scientific Publishers, Amsterdam 1983; Radial Maze: U. Stäubli, M. Baudry und G. Lynch, Behavioral and Neural Biology 40, 58-69 (1984).)
(§2) Entsprechend den genannten Literaturangaben wird eine Substanz dann als nootrop wirksam bezeichnet, wenn sie bei den Versuchstieren der durch Scopolamin, Elektroschock oder Inhibitoren der Proteinsynthese induzierte Erhöhung der Fehlerrate in diesen Tests entgegenwirkt oder sie gar aufzuheben vermag.
(§3) Die Versuche wurden nach den obenbeschriebenen Testverfahren durchgeführt. […]

[2] = test system: Scopolamin-induzierte Amnesie; assay: radial-maze test (8-arm radial maze), reversal of scopolamine-induced amnesia; assay type: in vivo, Ratten; settings: Rattus norvegicus, po, rats, comparison compound, read-out: MED (minimal effektive Dosis)
Source text: as §1, §2, §3

[3] = stability in water at 80°C for 8 days, checked by HPLC; assay type: physicochemical; settings: 200 mg in 20 ml water, 8 days at 80°C, freeze-dried, HPLC detection at 220 nm
Experimental: • a) 200 mg Ac-Met(O₂)-Glu-His-Phe-D-Lys-Phe-NH(CH₂)₈-NH₂ · 2 CH₃COOH wurden in 20 ml Wasser gelöst und 8 Tage auf 80°C erhitzt. Nach dem Abkühlen wurde gefriergetrocknet.

| SMILES | minimal effective dose [1] | minimal effective dose [2] | Zersetzung (HPLC-Untersuchung) [3] |
| --- | --- | --- | --- |
| NC(=O)CN1CCCC1=O [Piracetam, 2-Oxo-1-pyrrolidinylessigsäureamid] | 500 to 1000 mg/kg | 500 to 1000 mg/kg |  |
| CS(=O)(=O)CC[C@H](N)C(=O)N[C@@H](CCC(=O)O)C(=O)N[C@@H](Cc1c[nH]cn1)C(=O)N[C@@H](Cc1ccccc1)C(=O)N[C@H](CCCCN)C(=O)N[C@@H](Cc1ccccc1)C(=O)NCCCCCCCCN [H-Met(O₂)-Glu-His-Phe-D-Lys-Phe-NH-(CH₂)₈-NH₂] (HELM PEPTIDE1{[CS(=O)(=O)CC[C@H](N)C(=O)[*:2]].E.H.F.[dK].F.[NCCCCCCCCN[*:1]]}$$$$V2.0) |  |  | starke Zersetzung |
| CC(=O)N[C@@H](CCS(C)(=O)=O)C(=O)N[C@@H](CCC(=O)O)C(=O)N[C@@H](Cc1c[nH]cn1)C(=O)N[C@@H](Cc1ccccc1)C(=O)N[C@H](CCCCN)C(=O)N[C@@H](Cc1ccccc1)C(=O)NCCCCCCCCN [Ac-Met(O₂)-Glu-His-Phe-D-Lys-Phe-NH-(CH₂)₈-NH₂ · 2 CH₃COOH] (HELM PEPTIDE1{[ac].[CS(=O)(=O)CC[C@H](N[*:1])C(=O)[*:2]].E.H.F.[dK].F.[NCCCCCCCCN[*:1]]}$$$$V2.0) |  |  | keine Zersetzung |

Source: patent EP0424670B1, “ZNS-active hexapeptides with antiamnestic activity” (HOECHST AKTIENGESELLSCHAFT, priority 1989, dated 1995)
